Source: patent US20040044028A1, “Combinations of omega-3 fatty acids and cyclooxygenase-2 inhibitors for treatment or prevention of cardiovascular disease and treatment or prevention of cancer” (priority 2001, published 2004)
Marks after values point to notes of the source that are not given here.

Experiments:
mouse liver [1] = tested on: mouse liver; design: species or system mice; details: in vivo
Text: (§1) The metabolism of stearidonic acid to long chain n-3 polyunsaturated fatty acids (i.e., eicosapentaenoic acid (EPA), docosapentaenoic acid (DPA n-3) and docosahexaenoic acid (DHA)) in mouse liver is compared to that of α-linolenic acid, eicosapentaenoic acid and docosahexaenoic acid. The method used is a non-radioactive, dose response, metabolic end-point study.
Mice are fed a US 17 diet containing α-linolenic acid ethyl ester (ALA-EE), stearidonic acid ethyl ester (SDA-EE), eicosapentaenoic acid ethyl ester (EPA-EE), or docosahexaenoic acid ethyl ester (DHA-EE) in an amount equivalent to a human western diet containing 1, 3 or 10 g/day of the fatty acid (g/day human equivalent dose). In order to maintain a 17% fat (37% energy) content in the US17 diet, oleic acid (18:1 n-9), as an oleic acid cassette, is removed from the US17 diet in an amount equal to the amount of fatty acid ester that is added. Oleic acid is selected as the replacement fatty acid because literature reports indicate that oleic acid is neutral with respect to inflammation and cancer.
After one month on the respective US17-based diets, the mice are sacrificed and the fatty acid composition of each of their livers is analyzed by gas chromatography. The sum of the long chain n-3 PUFAs (i.e., EPA+DPA n-3+DHA) increases dose dependently in liver tissue in the following rank order: DHA-EE>EPA-EE>SDA-EE>ALA-EE. […] Each of the dietary n-3 PUFAs decreases the level of arachidonic acid in liver tissue dose dependently. This is significant because arachidonic acid metabolites (e.g., prostaglandins, leukotrienes, and HETEs (hydroxyeicosatetraenoic acid)) are correlated with cardiovascular disease, inflammation, and tumorigenesis. The group “basal” refers to mice that are fed the standard rodent chow diet just prior to switching to diets that are US17 based.

[2] = tested on: Min/+ mouse model of intestinal cancer; test: Min/+ mouse model of intestinal cancer, intestinal polyp formation; format: in vivo; details: for effect on polyp number: differences not significant relative to the US17 control; for mice with large intestine tumors / mice in group (in parentheses): seven weeks on US17 diet with fatty acid ethyl ester 3% wt. or sulindac 320 ppm
Procedure: The efficacy of select n-3 and n-6 polyunsaturated fatty acids is evaluated in the Min/+ mouse model of intestinal cancer. The following fatty acid ethyl esters are tested for their effect on intestinal polyp formation: 1) ALA-EE; 2) SDA-EE; 3) EPA-EE; 4) DHA-EE; 5) GLA-EE ([…] adid, 18:3 n-6); and 6) CLA-EE (conjugated linoleic acid; c9t11-18:2 (77%)+c9c11-18:2 (18%)+other isomers (5%)).
These fatty acid ethyl esters are added to the US17 diet to provide 10 g/day human equivalent dose (3% wt.). The NSAID, sulindac (320 ppm), serves as the positive control. In order to maintain a 17% fat (37 en %) content in the US17 diet, oleic acid (18:1 n-9) is removed from the US17 diet in an amount equal to the amount of the fatty acid ethyl ester that is added. Mice are received at approximately five weeks of age and are fed the test diets upon receipt. After seven weeks on the respective test diet, the mice are sacrificed and the intestinal polyps are counted and measured.

HepG2 cells = test: Metabolism of 14C fatty acids to long chain n-3 PUFAs, EPA and DHA in HepG2 cells; format: in vitro ADME; details: for metabolized to DHA / metabolized to EPA: 20 μM 14C fatty acid
Procedure: To a culture medium containing HepG2 cells is added 20 μM ^14C-ALA, ^14C-SDA or ^14C-EPA complexed to fatty acid free BSA. The amount of ^14C-ALA, ^14C-SDA or ^14C-EPA taken up by the HepG2 cells is measured at 6 hours, 24 hours and 48 hours after addition of the fatty acid. A scintillation counter is used to measure the total amount of radioactivity in the HepG2 cells and the amount remaining in the medium.
The metabolism of stearidonic acid to long chain n-3 PUFAs (eicosatetraenoic acid (20:4n-3), eicosapentaenoic acid (20:5n-3), docosapentaenoic acid (22:5n-3), and docosahexaenoic acid (22:6n-3)) in HepG2 cells is compared to that of α-linolenic acid. HepG2 cells are allowed to take up ^14C-ALA or ^14C-SDA as described in Example 2. The total amount of ^14C-EPA, ^14C-DPA and ^14C-DHA present in the HepG2 cells is measured at 6 hours, 24 hours and 48 hours after addition of the fatty acid by argentation thin layer chromatography (TLC). The amount of each fatty acid present as a band on the TLC plate is quantified by electronic autoradiography using an Instant Imager available from Packard (Meriden, Conn.).
HepG2 cells are allowed to take up ^14C-ALA, ^14C-SDA or ^14C-EPA as described in Example 2. The amount of ^14C-EPA and ^14C-DHA present in the HepG2 cells is measured at 6 hours, 24 hours and 48 hours after addition of the fatty acids by argentation thin layer chromatography (TLC) as described in Example 3. The amount of ^14C-EPA and ^14C-DHA present as bands on the TLC plate are quantified by electronic autoradiography using an Instant Imager as described in Example 3.

mouse liver [3] = test: Metabolism in mice, time course analysis using radiolabeled fatty acids; format: in vivo; details: 10 μCi intraperitoneal, at 24 hours
Text: as §1, with “n-3),” for “n-3)”, “time course study using ^14C-labeled fatty acids.” for “non-radioactive, dose response, metabolic end-point study.”
Mice are fed the US 17 diet for a period of one month in order to achieve steady-state fatty acid metabolism. After achieving steady-state fatty acid metabolism, the mice are administered an intraperitoneal injection containing 10 μCi of ^14C-ALA, ^14C-SDA, ^14C-EPA or ^14C-DHA. Mice are sacrificed 3 hours, 8 hours or 24 hours post-injection, and the total amount of ^14C-EPA, ^14C-DPA n-3 and ^14C-DHA is measured by argentation thin layer chromatography followed by direct electronic autoradiography, as described in Example 3. The order of metabolism of the PUFAs is DHA=EPA>SDA>ALA at 24 hours. SDA is metabolized to long chain n-3 PUFAs more efficiently than ALA in vivo.

rat liver = test: Metabolism in rats, end point analysis using cold fatty acid ethyl esters; format: in vivo; details: dietary ethyl esters
Procedure: Oleic acid is selected as the replacement fatty acid because literature reports indicate that oleic acid is neutral with respect to inflammation and cancer. After one month on the respective US17-based diets, the mice are sacrificed and the fatty acid composition of each of their livers is analyzed by gas chromatography. […] DHA-EE>EPA-EE>SDA-EE>ALA-EE. […] This is significant because arachidonic acid metabolites (e.g., prostaglandins, leukotrienes, and HETEs (hydroxyeicosatetraenoic acid)) are correlated with cardiovascular disease, inflammation, and tumorigenesis. The group “basal” refers to mice that are fed the standard rodent chow diet just prior to switching to diets that are US17 based. […] The method used is as described in Example 6 except that rats are used in place of mice.

[4] = tested on: small intestine tissue of Min/+ mouse; test: Arachidonic acid level in small intestine tissue of Min/+ mice; format: in vivo; details: phospholipid fraction, ethyl ester 3% wt. in US17 diet
Procedure: The efficacy of select n-3 and n-6 polyunsaturated fatty acids in reducing the level of arachidonic acid in small intestine tissue is evaluated using the Min/+ mouse model.
The following fatty acid ethyl esters are tested for their effect on intestinal fatty acid composition: 1) ALA-EE; 2) SDA-EE; 3) EPA-EE; 4) DHA-EE; 5) GLA-EE; and 6) CLA-EE. Fatty acid composition is determined in the small intestine because that is where the vast majority of polyps form.
These fatty acid esters are added to the US17 diet as discussed in Example 8. The arachidonic acid level in the phospholipid fraction of the small intestines of the mice is determined by gas chromatography.

[5] = Min/+ mice, seven weeks, ethyl ester 3% wt. or sulindac 320 ppm
[6] = Min/+ mice, seven weeks, ethyl ester 3% wt. or sulindac 320 ppm, mean ± SEM
[7] = large and small intestine, Min/+ mice, seven weeks, ethyl ester 3% wt. or sulindac 320 ppm, mean ± SEM
[8] = tumor number × tumor size, Min/+ mice, seven weeks, ethyl ester 3% wt. or sulindac 320 ppm, mean ± SEM

## CC/C=C\C/C=C\C/C=C\C/C=C\CCCCC(=O)OCC [SDA-EE, stearidonic acid ethyl ester]
Mouse liver [1]
  sum of the long chain n-3 PUFAs (EPA+DPA n-3+DHA) in liver tissue, rank order of dose dependent increase: DHA-EE>EPA-EE>SDA-EE>ALA-EE

## CC/C=C\C/C=C\C/C=C\CCCCCCCC(=O)OCC [ALA-EE, α-linolenic acid ethyl ester]
Mouse liver [1]
  sum of the long chain n-3 PUFAs (EPA+DPA n-3+DHA) in liver tissue, rank order of dose dependent increase: DHA-EE>EPA-EE>SDA-EE>ALA-EE

## CC/C=C\C/C=C\C/C=C\C/C=C\C/C=C\C/C=C\CCC(=O)OCC [DHA-EE, docosahexaenoic acid ethyl ester]
Mouse liver [1]
  sum of the long chain n-3 PUFAs (EPA+DPA n-3+DHA) in liver tissue, rank order of dose dependent increase: DHA-EE>EPA-EE>SDA-EE>ALA-EE

## conjugated linoleic acid [CLA, reference compound]
[2]; [5]
  Total small intestine tumors/group: 40
[2]; Min/+ mice
  effect on polyp number: appears to increase polyp number
[2]
  mice with large intestine tumors / mice in group (in parentheses): 5/9

## CC1=C(CC(=O)O)c2cc(F)ccc2/C1=C\c1ccc([S+](C)[O-])cc1 (centres unmarked) [Sulindac, sulindac, reference compound]
[2]; [6]
  Avg. large intestine tumors/mouse: 0.2 ± 0.2^ad
[2]
  mice with large intestine tumors / mice in group (in parentheses): 2/9

## CC/C=C\C/C=C\C/C=C\C/C=C\CCCCC(=O)O [Compound A-2, all cis 6,9,12,15-octadecatetraenoic acid]
HepG2 cells
  metabolism to long chain n-3 PUFAs, comparison: faster than that of ALA
  metabolized to DHA: 6%
  metabolized to EPA: 55%
Mouse liver [3]
  order of metabolism of the PUFAs to long chain n-3 PUFAs (14C-EPA, 14C-DPA n-3, 14C-DHA): DHA=EPA>SDA>ALA
Rat liver
  decrease in the level of arachidonic acid, comparison: greater decrease in the level of arachidonic acid than does either ALA or EPA
  metabolism to long chain n-3 polyunsaturated fatty acids, comparison: better than ALA
[4]
  decreasing the level of arachidonic acid in the small intestine, comparison: more effective than ALA, EPA and DHA
[2]; [5]
  Total small intestine tumors/group: 18
[2]; [7]
  Total Avg. tumors/mouse: 18.7 ± 1.9^c
[2]
  mice with large intestine tumors / mice in group (in parentheses): 2/10

## CCCCC/C=C\C/C=C\C/C=C\CCCCC(=O)O [GLA, γ-linolenic acid, reference compound]
[2]; [5]
  Total small intestine tumors/group: 42
[2]; Min/+ mice
  effect on polyp number: appears to increase polyp number
[2]
  mice with large intestine tumors / mice in group (in parentheses): 6/9

## CC/C=C\C/C=C\C/C=C\C/C=C\C/C=C\CCCC(=O)O [Compound A-4, all cis (5,8,11,14,17-eicosapentaenoic acid]
[2]; Min/+ mice
  effectiveness in inhibiting polyp formation and development in the large intestine: marginally efficacious
[2]; [5]
  Total small intestine tumors/group: 17
[2]; [7]
  Total Avg. tumors/mouse: 18.5 ± 2.2^c
[2]
  mice with large intestine tumors / mice in group (in parentheses): 6/10
[2]; [8]
  Avg. small intestine tumor load: 18.34 ± 2.04^cd mm

## CC/C=C\C/C=C\C/C=C\C/C=C\C/C=C\CCCC(=O)OCC [EPA-EE, eicosapentaenoic acid ethyl ester]
Mouse liver [1]
  sum of the long chain n-3 PUFAs (EPA+DPA n-3+DHA) in liver tissue, rank order of dose dependent increase: DHA-EE>EPA-EE>SDA-EE>ALA-EE

## CC/C=C\C/C=C\C/C=C\C/C=C\C/C=C\C/C=C\CCC(=O)O [Compound A-6, all cis 4,7,10,13,16,19-docosahexanoic acid]
Mouse liver [3]
  order of metabolism of the PUFAs to long chain n-3 PUFAs (14C-EPA, 14C-DPA n-3, 14C-DHA): DHA=EPA>SDA>ALA
[2]
  mice with large intestine tumors / mice in group (in parentheses): 9/10

## CC/C=C\C/C=C\C/C=C\CCCCCCCC(=O)O [Compound A-1, all cis 9,12,15-octadecatrienoic acid]
HepG2 cells
  metabolized to DHA: 3%
  metabolized to EPA: 24%
[2]; Min/+ mice
  effectiveness in inhibiting polyp formation and development in the large intestine: marginally efficacious
[2]; Min/+ mice, seven weeks on US17 diet with fatty acid ethyl ester 3% wt. (10 g/day human equivalent dose) or sulindac 320 ppm
  Total large intestine tumors/group: 8
[2]; [5]
  Total small intestine tumors/group: 364
[2]; [6]
  Avg. large intestine tumors/mouse: 0.8 ± 0.3^bcd
  Avg. small intestine tumor size: 1.23 ± 0.04^ab mm
  Avg. small intestine tumors/mouse: 36.4 ± 6.3^ab
[2]; Min/+ mice, seven weeks, ethyl ester 3% wt. or sulindac 320 ppm, mean ± SEM, only animals bearing colonic tumors
  Avg. large intestine tumor size: 2.75 ± 0.46^ab
[2]; [7]
  Total Avg. overall tumor size: 1.21 ± 0.03^bc mm
  Total Avg. tumors/mouse: 37.2 ± 6.6^ab
[2]
  mice with large intestine tumors / mice in group (in parentheses): 5/10
[2]; tumor number × tumor size, large and small intestine, Min/+ mice, seven weeks, ethyl ester 3% wt. or sulindac 320 ppm, mean ± SEM
  Total Avg. overall tumor load: 45.97 ± 8.88^ab mm
[2]; [8]
  Avg. large intestine tumor load: 2.15 ± 0.82^bcd mm
  Avg. small intestine tumor load: 45.67 ± 8.66^ab mm
